{"source": "patent US10138468B2", "about": "“Method for differentiation of pluripotent stem cells into multi-competent renal precursors” (Hoffmann-La Roche Inc., priority 2013, dated 2018)", "key": {"[1]": {"test_system": "hPSCs-derived Podocytes cells", "test": "Functional response to stressor stimulation: ZO-1 localization by immunocytochemistry and image based high content analysis", "type": "cell-based, human", "details": "podocytes at Day 13, already at Day 1, sustained at D2 and D5, DMEMF12 medium", "description": "FIG. 6: Characterization of monolayer differentiated hPSCs-derived Podocytes cells at Day 13. hiPSCs have been differentiated in monolayer conditions and at Day 13 have been tested for functional response to TGF beta (10 ng/ml) stressor stimulation. The expression of the tight junction marker ZO-1 has been tested by immunocytochemistry analysis and its cellular localization by image based high content analysis (HCA).\nFIG. 7: Characterization of monolayer differentiated hPSCs-derived Podocytes cells at Day 13. hiPSCs have been differentiated in monolayer conditions and at Day 13 have been tested for functional response to Angiotensin II (AngII) (100 nM) stressor stimulation. The expression of the tight junction marker ZO-1 has been tested by immunocytochemistry analysis and its cellular localization by image based high content analysis (HCA).\nThe cells were fixed with PBS containing 4% paraformaldehyde for 20 min at room temperature. After three washing with PBS the cells the cells were then blocked with 5% BSA solution (Blocking buffer) for 60 min. When probing for an intracellular antigen, 0.5% Triton-X was included in the blocking buffer. […] Fluorescence was acquired and analyzed by the Operetta® High Content Imaging System (PerkinElmer) followed by computer-based image analysis (ImageJ, Java-based image processing program). […]"}, "[2]": {"test_system": "hPSCs-derived Podocytes cells", "test": "Pro-inflammatory cytokine response assay (Bio-Plex Pro Cytokine, Chemokine and Growth factor assay)", "type": "cell-based, human", "details": "TNFα 1 ng/ml and 5 ng/ml, 24 h, DMEMF12 medium", "description": "FIG. 8a: Pro-inflammatory cytokine response assay. hPSCs-derived Podocytes cells at Day 13 upregulate the expression of pro-inflammatory markers such as IL-8 upon stimulation with TNFα (1 ng/ml and 5 ng/ml) after 24 h in DMEMF12 medium Main panel: Quantification graph: concentration in the harvested supernatant (pg/ml) of the mentioned cytokines. Bio-Plex Pro Cytokine, Chemokine and Growth factor assay was used to measure the activation of hPSCs-derived Podocytes cells in response to TNFα.\nIn response to proinflammatory stimuli Podocytes express specific cytokines including IL-8, Rantes, MIP-1b and MCP1. Bio-Plex Pro™ Cytokine, Chemokine and Growth factor assay (Biorad, M50-0KCAF0Y). After overnight serum starvation hiPS derived podocytes were exposed at two different concentrations of TNFα (1 and 5 ng/ml) for 24 hours. After treatment the supernatants were collected and used to quantify the Cytokine, Chemokine and Growth factor release using Bio-Plex Pro™ Cytokine, Chemokine and Growth factor assay kit (Biorad, M50-0KCAF0Y). The assay was performed following the manufacturer's instruction. To determine whether the differentiation system generates bona fide Podocytes, we challenged the iPS-derived Podocytes with proinflammatory TNFα and analyzed for cytokine and chemokine release."}}, "note": "Entries after “also recorded” stand apart in the source; their conditions may differ."}
{"substance": "Angiotensin II [AngII, stressor stimulation (100 nM) of podocytes]", "values": [{"measurement": "ZO-1 cellular localization (perinuclear translocation of ZO-1 expression)", "setting": "[1]; AngII 100 nM", "result": "remodeling and translocation of the ZO-1 expression form the membrane to the perinuclear zone"}]}
{"substance": "TNFα", "values": [{"measurement": "IL-8 concentration in the harvested supernatant", "setting": "[2]", "result": "increase of the supernatant concentration; also recorded: significantly upregulated"}, {"measurement": "MCP1 concentration in the harvested supernatant", "setting": "[2]", "result": "increase of the supernatant concentration; also recorded: significantly upregulated"}, {"measurement": "MIP1b concentration in the harvested supernatant", "setting": "[2]", "result": "increase of the supernatant concentration; also recorded: significantly upregulated"}, {"measurement": "RANTES concentration in the harvested supernatant", "setting": "[2]", "result": "increase of the supernatant concentration; also recorded: significantly upregulated"}]}
{"substance": "TGF beta: stressor stimulation (10 ng/ml) of podocytes", "values": [{"measurement": "ZO-1 cellular localization (perinuclear translocation of ZO-1 expression)", "setting": "[1]; TGF beta 10 ng/ml", "result": "remodeling and translocation of the ZO-1 expression form the membrane to the perinuclear zone"}]}
